Laboratory results taken from PMC11864979, “First-in-class ultralong-target-residence-time p38α inhibitors as a mitosis-targeted therapy for colorectal cancer” (Nature Cancer, 2025).
Read-outs that look alike come from different tables or passages of the source.

Assays:
Assay in all cases: selectivity profiling in a panel of 340 wild-type kinases (Reaction Biology Europe)
Assay type in all cases: binding
[1] = biological target: T1, 340 wild-type kinases (Homo sapiens, UniProt Q04912)
T1 construct: purchased Reaction Biology Europe

[2] = biological target: T2, 340 wild-type kinases (Homo sapiens, UniProt P23443)
T2 construct: purchased Reaction Biology Europe
T2 sequence (P23443 whole entry): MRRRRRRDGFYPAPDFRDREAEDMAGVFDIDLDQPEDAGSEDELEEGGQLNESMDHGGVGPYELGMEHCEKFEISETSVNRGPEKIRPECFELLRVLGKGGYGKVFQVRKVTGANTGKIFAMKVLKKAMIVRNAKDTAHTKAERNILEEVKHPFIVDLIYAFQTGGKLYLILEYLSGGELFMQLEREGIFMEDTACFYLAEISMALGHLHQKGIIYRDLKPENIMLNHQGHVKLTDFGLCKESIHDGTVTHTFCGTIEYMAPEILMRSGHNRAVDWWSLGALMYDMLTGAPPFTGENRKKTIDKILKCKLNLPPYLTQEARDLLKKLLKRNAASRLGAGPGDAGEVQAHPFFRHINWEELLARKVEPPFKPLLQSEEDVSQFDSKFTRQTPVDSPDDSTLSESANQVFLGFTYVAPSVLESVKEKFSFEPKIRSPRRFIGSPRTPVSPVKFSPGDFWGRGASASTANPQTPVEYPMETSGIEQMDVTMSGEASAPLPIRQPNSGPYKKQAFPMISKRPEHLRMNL

[3] = biological target: T3, 340 wild-type kinases (Homo sapiens, UniProt Q16512)
T3 construct: purchased Reaction Biology Europe
T3 sequence (Q16512 whole entry): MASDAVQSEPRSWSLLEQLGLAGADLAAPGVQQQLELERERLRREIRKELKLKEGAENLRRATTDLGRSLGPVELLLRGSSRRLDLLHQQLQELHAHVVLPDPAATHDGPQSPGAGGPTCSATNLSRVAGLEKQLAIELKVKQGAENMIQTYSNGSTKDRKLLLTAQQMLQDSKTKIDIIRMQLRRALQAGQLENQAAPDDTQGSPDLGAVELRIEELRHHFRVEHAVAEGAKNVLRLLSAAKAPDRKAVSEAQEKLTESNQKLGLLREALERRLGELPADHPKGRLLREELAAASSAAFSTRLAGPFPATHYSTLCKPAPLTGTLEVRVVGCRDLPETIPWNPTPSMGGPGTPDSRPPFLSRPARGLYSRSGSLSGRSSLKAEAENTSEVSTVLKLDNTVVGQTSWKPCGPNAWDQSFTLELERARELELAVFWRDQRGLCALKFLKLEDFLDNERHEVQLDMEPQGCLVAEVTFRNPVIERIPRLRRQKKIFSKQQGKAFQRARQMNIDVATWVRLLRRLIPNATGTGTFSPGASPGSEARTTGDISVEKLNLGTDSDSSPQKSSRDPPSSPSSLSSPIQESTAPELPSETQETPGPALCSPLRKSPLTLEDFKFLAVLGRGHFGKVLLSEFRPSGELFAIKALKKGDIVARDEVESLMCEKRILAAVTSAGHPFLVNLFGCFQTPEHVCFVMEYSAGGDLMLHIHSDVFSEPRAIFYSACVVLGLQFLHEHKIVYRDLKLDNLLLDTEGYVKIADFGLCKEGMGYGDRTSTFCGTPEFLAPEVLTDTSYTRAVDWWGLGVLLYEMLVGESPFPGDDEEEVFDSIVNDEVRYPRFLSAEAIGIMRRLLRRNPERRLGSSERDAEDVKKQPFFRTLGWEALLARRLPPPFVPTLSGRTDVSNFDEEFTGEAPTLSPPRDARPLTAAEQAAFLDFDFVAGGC

[4] = biological target: T4, 340 wild-type kinases (Homo sapiens, UniProt P31749)
T4 construct: purchased Reaction Biology Europe

[5] = biological target: T5, 340 wild-type kinases (Homo sapiens, UniProt Q9BYP7)
T5 construct: purchased Reaction Biology Europe
T5 sequence (Q9BYP7 whole entry): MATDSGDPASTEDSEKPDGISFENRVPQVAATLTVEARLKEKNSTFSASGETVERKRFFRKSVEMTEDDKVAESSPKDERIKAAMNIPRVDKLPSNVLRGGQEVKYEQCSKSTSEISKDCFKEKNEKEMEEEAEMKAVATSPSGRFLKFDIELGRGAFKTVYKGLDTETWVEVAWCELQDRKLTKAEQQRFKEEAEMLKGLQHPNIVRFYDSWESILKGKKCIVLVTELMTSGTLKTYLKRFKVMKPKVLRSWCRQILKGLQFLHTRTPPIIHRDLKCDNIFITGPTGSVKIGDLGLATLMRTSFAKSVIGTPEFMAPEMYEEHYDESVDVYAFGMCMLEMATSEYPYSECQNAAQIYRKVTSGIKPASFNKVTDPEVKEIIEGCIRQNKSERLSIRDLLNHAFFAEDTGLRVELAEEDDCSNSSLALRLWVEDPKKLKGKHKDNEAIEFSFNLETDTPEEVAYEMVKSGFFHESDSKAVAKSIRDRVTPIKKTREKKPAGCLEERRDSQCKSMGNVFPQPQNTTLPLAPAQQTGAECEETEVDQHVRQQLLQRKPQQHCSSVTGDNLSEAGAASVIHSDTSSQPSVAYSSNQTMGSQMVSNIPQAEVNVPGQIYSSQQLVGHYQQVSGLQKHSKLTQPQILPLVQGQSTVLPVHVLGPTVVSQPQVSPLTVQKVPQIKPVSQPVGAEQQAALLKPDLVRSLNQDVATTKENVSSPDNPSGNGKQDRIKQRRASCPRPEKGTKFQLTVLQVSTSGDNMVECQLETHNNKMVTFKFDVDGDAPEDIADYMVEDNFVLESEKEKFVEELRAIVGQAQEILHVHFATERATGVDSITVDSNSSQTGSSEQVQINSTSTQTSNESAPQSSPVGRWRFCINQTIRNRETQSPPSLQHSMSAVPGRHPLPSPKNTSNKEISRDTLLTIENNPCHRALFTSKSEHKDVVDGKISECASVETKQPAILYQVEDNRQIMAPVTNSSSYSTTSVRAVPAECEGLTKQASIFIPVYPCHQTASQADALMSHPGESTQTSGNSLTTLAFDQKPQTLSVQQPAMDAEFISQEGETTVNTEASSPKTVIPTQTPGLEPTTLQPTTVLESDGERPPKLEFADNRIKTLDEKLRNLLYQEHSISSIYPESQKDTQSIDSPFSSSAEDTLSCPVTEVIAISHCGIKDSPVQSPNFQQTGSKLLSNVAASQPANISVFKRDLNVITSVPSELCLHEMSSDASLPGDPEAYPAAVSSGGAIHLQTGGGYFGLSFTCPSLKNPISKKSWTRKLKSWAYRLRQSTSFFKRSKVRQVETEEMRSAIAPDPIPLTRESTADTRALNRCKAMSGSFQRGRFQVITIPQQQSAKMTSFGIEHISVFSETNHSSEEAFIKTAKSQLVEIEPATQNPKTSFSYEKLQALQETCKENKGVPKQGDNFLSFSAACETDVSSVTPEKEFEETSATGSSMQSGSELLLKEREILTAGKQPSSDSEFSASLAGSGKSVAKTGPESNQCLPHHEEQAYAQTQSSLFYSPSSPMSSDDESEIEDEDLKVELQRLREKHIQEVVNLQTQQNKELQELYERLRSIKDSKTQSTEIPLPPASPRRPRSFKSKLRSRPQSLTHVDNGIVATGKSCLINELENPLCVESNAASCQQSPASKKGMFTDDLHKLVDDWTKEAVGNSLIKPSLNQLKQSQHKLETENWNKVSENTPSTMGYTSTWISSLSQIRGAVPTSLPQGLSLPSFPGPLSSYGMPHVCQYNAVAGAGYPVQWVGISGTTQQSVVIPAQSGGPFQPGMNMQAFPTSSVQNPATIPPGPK

[6] = biological target: T6, 340 wild-type kinases (Homo sapiens, UniProt Q9UEE5)
T6 construct: purchased Reaction Biology Europe
T6 sequence (Q9UEE5 1-414): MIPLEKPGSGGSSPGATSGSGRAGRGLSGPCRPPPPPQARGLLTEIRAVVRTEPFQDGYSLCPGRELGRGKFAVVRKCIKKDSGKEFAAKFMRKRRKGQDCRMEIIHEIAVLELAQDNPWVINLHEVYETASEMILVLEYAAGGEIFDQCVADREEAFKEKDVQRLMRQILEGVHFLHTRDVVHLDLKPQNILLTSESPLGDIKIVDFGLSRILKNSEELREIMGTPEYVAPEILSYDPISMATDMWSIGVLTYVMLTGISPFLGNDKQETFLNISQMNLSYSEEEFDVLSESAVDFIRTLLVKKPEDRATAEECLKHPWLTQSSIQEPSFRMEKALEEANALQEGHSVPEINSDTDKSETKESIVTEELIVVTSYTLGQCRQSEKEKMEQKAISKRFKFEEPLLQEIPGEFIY

[7] = biological target: T7, 340 wild-type kinases (Homo sapiens, UniProt P78368)
T7 construct: purchased Reaction Biology Europe

[8] = biological target: T8, 340 wild-type kinases (Homo sapiens, UniProt Q96RR4)
T8 construct: purchased Reaction Biology Europe
T8 sequence (Q96RR4 whole entry): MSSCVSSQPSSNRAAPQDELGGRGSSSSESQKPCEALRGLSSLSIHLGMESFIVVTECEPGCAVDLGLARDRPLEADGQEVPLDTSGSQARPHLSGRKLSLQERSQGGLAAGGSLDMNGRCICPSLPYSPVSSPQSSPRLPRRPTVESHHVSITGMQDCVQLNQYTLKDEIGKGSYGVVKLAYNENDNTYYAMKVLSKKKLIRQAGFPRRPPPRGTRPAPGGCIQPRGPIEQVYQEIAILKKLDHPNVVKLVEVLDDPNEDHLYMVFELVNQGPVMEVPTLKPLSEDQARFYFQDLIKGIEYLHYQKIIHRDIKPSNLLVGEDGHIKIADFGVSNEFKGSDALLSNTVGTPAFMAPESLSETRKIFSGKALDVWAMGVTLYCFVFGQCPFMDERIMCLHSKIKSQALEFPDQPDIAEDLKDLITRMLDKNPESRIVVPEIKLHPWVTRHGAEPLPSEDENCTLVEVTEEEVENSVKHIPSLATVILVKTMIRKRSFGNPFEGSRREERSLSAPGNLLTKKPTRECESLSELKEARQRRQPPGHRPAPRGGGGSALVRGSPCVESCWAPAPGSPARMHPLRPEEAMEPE

[9] = biological target: T9, 340 wild-type kinases (Homo sapiens, UniProt P53355)
T9 construct: purchased Reaction Biology Europe

[10] = biological target: T10, 340 wild-type kinases (Homo sapiens, UniProt P12931)
T10 construct: purchased Reaction Biology Europe
T10 sequence (P12931 whole entry): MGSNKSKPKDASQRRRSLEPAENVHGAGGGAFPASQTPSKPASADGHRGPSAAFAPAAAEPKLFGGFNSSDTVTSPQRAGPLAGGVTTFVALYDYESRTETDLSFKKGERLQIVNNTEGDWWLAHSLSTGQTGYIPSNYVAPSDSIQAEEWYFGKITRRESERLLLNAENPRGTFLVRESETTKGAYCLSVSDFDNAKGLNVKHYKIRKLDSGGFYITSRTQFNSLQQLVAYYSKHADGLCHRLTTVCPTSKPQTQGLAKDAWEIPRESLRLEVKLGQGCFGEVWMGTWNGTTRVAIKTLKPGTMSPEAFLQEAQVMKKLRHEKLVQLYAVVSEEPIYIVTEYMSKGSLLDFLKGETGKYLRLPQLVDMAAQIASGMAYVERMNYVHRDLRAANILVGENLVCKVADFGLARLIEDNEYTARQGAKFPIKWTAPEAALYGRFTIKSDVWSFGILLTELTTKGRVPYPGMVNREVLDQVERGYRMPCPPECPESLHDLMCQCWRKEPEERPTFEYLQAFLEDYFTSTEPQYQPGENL

[11] = biological target: T11, 340 wild-type kinases (Homo sapiens, UniProt P49137)
T11 construct: purchased Reaction Biology Europe

[12] = biological target: T12, 340 wild-type kinases (Homo sapiens, UniProt Q9UM73)
T12 construct: purchased Reaction Biology Europe

[13] = biological target: T13, 340 wild-type kinases (Homo sapiens, UniProt Q15831)
T13 construct: purchased Reaction Biology Europe
T13 sequence (Q15831 1-433): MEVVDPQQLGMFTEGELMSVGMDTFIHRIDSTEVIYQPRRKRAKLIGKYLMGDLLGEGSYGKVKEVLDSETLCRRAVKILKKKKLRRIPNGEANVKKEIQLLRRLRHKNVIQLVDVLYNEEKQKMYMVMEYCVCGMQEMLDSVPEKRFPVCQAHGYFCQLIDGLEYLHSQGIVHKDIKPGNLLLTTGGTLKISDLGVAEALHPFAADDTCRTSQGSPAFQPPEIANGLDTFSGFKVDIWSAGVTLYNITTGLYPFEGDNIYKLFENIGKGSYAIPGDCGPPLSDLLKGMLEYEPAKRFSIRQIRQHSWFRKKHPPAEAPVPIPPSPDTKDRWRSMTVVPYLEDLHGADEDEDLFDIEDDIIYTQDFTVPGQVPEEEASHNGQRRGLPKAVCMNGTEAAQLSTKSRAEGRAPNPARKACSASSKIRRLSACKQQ

[14] = biological target: T14, 340 wild-type kinases (Homo sapiens, UniProt P43405)
T14 construct: purchased Reaction Biology Europe

[15] = biological target: T15, 340 wild-type kinases (Homo sapiens, UniProt Q13554)
T15 construct: purchased Reaction Biology Europe
T15 sequence (Q13554 whole entry): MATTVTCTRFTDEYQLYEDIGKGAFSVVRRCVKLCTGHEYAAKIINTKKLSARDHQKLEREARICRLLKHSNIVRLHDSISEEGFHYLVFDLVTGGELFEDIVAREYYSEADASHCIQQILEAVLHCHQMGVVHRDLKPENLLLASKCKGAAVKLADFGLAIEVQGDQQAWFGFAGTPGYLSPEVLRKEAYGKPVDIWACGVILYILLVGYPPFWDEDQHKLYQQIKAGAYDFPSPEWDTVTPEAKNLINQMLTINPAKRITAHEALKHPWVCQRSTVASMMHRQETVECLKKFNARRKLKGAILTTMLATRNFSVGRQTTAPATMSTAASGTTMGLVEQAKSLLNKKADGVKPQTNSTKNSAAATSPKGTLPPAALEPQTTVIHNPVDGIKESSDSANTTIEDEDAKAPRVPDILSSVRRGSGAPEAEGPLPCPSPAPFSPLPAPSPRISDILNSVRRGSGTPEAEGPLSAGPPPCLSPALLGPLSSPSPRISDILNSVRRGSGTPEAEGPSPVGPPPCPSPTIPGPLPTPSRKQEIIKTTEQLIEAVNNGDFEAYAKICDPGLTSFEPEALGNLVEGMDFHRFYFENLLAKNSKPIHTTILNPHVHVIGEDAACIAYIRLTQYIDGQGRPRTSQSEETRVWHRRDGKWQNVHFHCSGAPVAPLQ

## CNC(=O)c1ccc2c(c1)C(=O)c1ccc(Nc3ccc(F)c(NC(=O)C4CC4)c3)cc1CC2 [Compound 2015]
[1]; 0.2 µM 2015, read-out: RON residual activity
  remaining activity at 0.2 µM: 97%
[1]; 1 µM 2015, read-out: RON residual activity
  remaining activity at 1 µM: 101%
[1]; RON, 0.2 µM, read-out: residual activity
  remaining activity at 0.2 µM: 97%
[1]; RON, 1 µM, read-out: residual activity
  remaining activity at 1 µM: 101%
[2]; 0.2 µM 2015, read-out: S6K residual activity
  remaining activity at 0.2 µM: 94.9%
[2]; 1 µM 2015, read-out: S6K residual activity
  remaining activity at 1 µM: 95.1%
[2]; S6K, 0.2 µM, read-out: residual activity
  remaining activity at 0.2 µM: 94.9%
[2]; S6K, 1 µM, read-out: residual activity
  remaining activity at 1 µM: 95.1%
[3]; 0.2 µM 2015, read-out: PRK1 residual activity
  remaining activity at 0.2 µM: 101%
[3]; 1 µM 2015, read-out: PRK1 residual activity
  remaining activity at 1 µM: 97.6%
[3]; PRK1, 0.2 µM, read-out: residual activity
  remaining activity at 0.2 µM: 101%
[3]; PRK1, 1 µM, read-out: residual activity
  remaining activity at 1 µM: 97.6%
[4]; 0.2 µM 2015, read-out: AKT1 residual activity
  remaining activity at 0.2 µM: 100%
[4]; 1 µM 2015, read-out: AKT1 residual activity
  remaining activity at 1 µM: 98.7%
[4]; AKT1, 0.2 µM, read-out: residual activity
  remaining activity at 0.2 µM: 100%
[4]; AKT1, 1 µM, read-out: residual activity
  remaining activity at 1 µM: 98.7%
[5]; 0.2 µM 2015, read-out: WNK3 residual activity
  remaining activity at 0.2 µM: 121%
[5]; 1 µM 2015, read-out: WNK3 residual activity
  remaining activity at 1 µM: 113%
[5]; WNK3, 0.2 µM, read-out: residual activity
  remaining activity at 0.2 µM: 121%
[5]; WNK3, 1 µM, read-out: residual activity
  remaining activity at 1 µM: 113%
[6]; 0.2 µM 2015, read-out: STK17A residual activity
  remaining activity at 0.2 µM: 109%
[6]; 1 µM 2015, read-out: STK17A residual activity
  remaining activity at 1 µM: 97.8%
[6]; STK17A, 0.2 µM, read-out: residual activity
  remaining activity at 0.2 µM: 109%
[6]; STK17A, 1 µM, read-out: residual activity
  remaining activity at 1 µM: 97.8%
[7]; 0.2 µM 2015, read-out: CK1gamma2 residual activity
  remaining activity at 0.2 µM: 111%
[7]; 1 µM 2015, read-out: CK1gamma2 residual activity
  remaining activity at 1 µM: 113%
[7]; CK1gamma2, 0.2 µM, read-out: residual activity
  remaining activity at 0.2 µM: 111%
[7]; CK1gamma2, 1 µM, read-out: residual activity
  remaining activity at 1 µM: 113%
[8]; 0.2 µM 2015, read-out: CAMKK2 residual activity
  remaining activity at 0.2 µM: 96%
[8]; 1 µM 2015, read-out: CAMKK2 residual activity
  remaining activity at 1 µM: 96.6%
[8]; CAMKK2, 0.2 µM, read-out: residual activity
  remaining activity at 0.2 µM: 96%
[8]; CAMKK2, 1 µM, read-out: residual activity
  remaining activity at 1 µM: 96.6%
[9]; 0.2 µM 2015, read-out: DAPK1 residual activity
  remaining activity at 0.2 µM: 128%
[9]; 1 µM 2015, read-out: DAPK1 residual activity
  remaining activity at 1 µM: 135%
[9]; DAPK1, 0.2 µM, read-out: residual activity
  remaining activity at 0.2 µM: 128%
[9]; DAPK1, 1 µM, read-out: residual activity
  remaining activity at 1 µM: 135%
[10]; 0.2 µM 2015, read-out: SRC residual activity
  remaining activity at 0.2 µM: 105%
[10]; 1 µM 2015, read-out: SRC residual activity
  remaining activity at 1 µM: 95.5%
[10]; SRC, 0.2 µM, read-out: residual activity
  remaining activity at 0.2 µM: 105%
[10]; SRC, 1 µM, read-out: residual activity
  remaining activity at 1 µM: 95.5%
[11]; 0.2 µM 2015, read-out: MAPKAPK2 residual activity
  remaining activity at 0.2 µM: 153%
[11]; 1 µM 2015, read-out: MAPKAPK2 residual activity
  remaining activity at 1 µM: 118%
[11]; MAPKAPK2, 0.2 µM, read-out: residual activity
  remaining activity at 0.2 µM: 153%
[11]; MAPKAPK2, 1 µM, read-out: residual activity
  remaining activity at 1 µM: 118%
[12]; 0.2 µM 2015, read-out: ALK residual activity
  remaining activity at 0.2 µM: 95.3%
[12]; 1 µM 2015, read-out: ALK residual activity
  remaining activity at 1 µM: 86.8%
[12]; ALK, 0.2 µM, read-out: residual activity
  remaining activity at 0.2 µM: 95.3%
[12]; ALK, 1 µM, read-out: residual activity
  remaining activity at 1 µM: 86.8%
[13]; 0.2 µM 2015, read-out: LKB1/MO25a/STRADa residual activity
  remaining activity at 0.2 µM: 115%
[13]; 1 µM 2015, read-out: LKB1/MO25a/STRADa residual activity
  remaining activity at 1 µM: 91.6%
[13]; LKB1/MO25a/STRADa, 0.2 µM, read-out: residual activity
  remaining activity at 0.2 µM: 115%
[13]; LKB1/MO25a/STRADa, 1 µM, read-out: residual activity
  remaining activity at 1 µM: 91.6%
[14]; 0.2 µM 2015, read-out: SYK residual activity
  remaining activity at 0.2 µM: 95.8%
[14]; 1 µM 2015, read-out: SYK residual activity
  remaining activity at 1 µM: 85.6%
[14]; SYK, 0.2 µM, read-out: residual activity
  remaining activity at 0.2 µM: 95.8%
[14]; SYK, 1 µM, read-out: residual activity
  remaining activity at 1 µM: 85.6%
[15]; 0.2 µM 2015, read-out: CAMK2B residual activity
  remaining activity at 0.2 µM: 112%
[15]; 1 µM 2015, read-out: CAMK2B residual activity
  remaining activity at 1 µM: 89%
[15]; CAMK2B, 0.2 µM, read-out: residual activity
  remaining activity at 0.2 µM: 112%
[15]; CAMK2B, 1 µM, read-out: residual activity
  remaining activity at 1 µM: 89%
